Assay results reported in patent US12037324B2, “Biarylmethyl heterocycles” (Université de Montréal, priority 2016, dated 2024).
pEC50: −log10 of the molar value.

Tests used:
hAT1R [1] = molecular target: T1, hAT1R (Homo sapiens, UniProt P30556); assay: cell-based; settings: agonist mode; for pEC50: read-out: BRET P63 EC50
T1 sequence (P30556 1-359): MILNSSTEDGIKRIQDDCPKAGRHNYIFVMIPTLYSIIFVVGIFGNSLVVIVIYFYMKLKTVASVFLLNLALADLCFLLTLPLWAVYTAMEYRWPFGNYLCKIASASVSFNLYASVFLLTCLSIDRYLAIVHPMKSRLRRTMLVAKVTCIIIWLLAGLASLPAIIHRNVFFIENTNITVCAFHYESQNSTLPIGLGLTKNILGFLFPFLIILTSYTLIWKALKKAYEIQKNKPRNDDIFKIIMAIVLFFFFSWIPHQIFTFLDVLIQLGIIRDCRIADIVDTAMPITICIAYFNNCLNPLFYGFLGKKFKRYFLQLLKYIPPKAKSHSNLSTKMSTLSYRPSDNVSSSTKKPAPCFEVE

AGTR1 [2] = molecular target: T2, AGTR1 (Homo sapiens, UniProt P30556); assay: DiscoveRx β-arrestin2 recruitment assay (enzyme complementation, Pathunter CHO-K1 AGTR1 β-arrestin cell line); assay type: cell-based; settings: DiscoveRx β-arrestin2 recruitment; for DiscoveRx β-arrestin2 Ymax (%): maximal response
T2 construct: host or cells: Pathunter CHO-K1 AGTR1 β-arrestin cell line (CHO-K1)
T2 sequence (P30556 1-359): T1 sequence (P30556 1-359)
Procedure, shortened: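 CHO-K1 cells expressing AGTR1 with β-arrestin2 enzyme-complementation reporter, plated 14-16 h ahead in 1% serum medium, then exposed to compounds for 90 min at 37° C. Chemiluminescence read after 1 h detection. EC50 (agonist) or IC50 (antagonist) from 4-parameter logistic fit; activity as percentage of All maximal effect.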

hAT1R [3] = molecular target: T1, hAT1R; assay: cell-based
hAT1R [4] = molecular target: T1, hAT1R; assay: BRET β-arrestin2 biosensor assay, higher receptor expression (hAT1R 5 ng/well), HEK293 cells; assay type: cell-based; settings: for pEC50: High AT1R Expression
AGTR1 [5] = molecular target: T2, AGTR1; assay: DiscoveRx IP1 accumulation assay (HTRF), agonist mode, Pathunter CHO-K1 AGTR1 β-arrestin cell line; assay type: cell-based; settings: for pEC50: read-out: IP-1 EC50
Procedure, shortened: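 Agonist mode in CHO-K1 AGTR1 β-arrestin cells plated 14-16 h before; compounds at varying concentrations for 90 min at 37° C, IP1 accumulation read by HTRF (D2-conjugate and anti-IP1 cryptate, 20 min room temperature). EC50 from 4-parameter logistic fit; activity given as percentage of maximal AII effect.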

[6] = Low AT1R Expression, read-out: BRET β-Arrestin2 Low AT1R Expression EC50
[7] = section of the 42nd table ending at r951, example numbering restarts after the DiscoveRx section, read-out: β-arrestin2 EC50

SMILES | BRET P63 Ymax (hAT1R [1]) [%] | pEC50 (hAT1R [1]) | pEC50 (AGTR1 [2]) | DiscoveRx β-arrestin2 Ymax (%) (AGTR1 [2]) | BRET β-Arrestin2 Low AT1R Expression Ymax (%) (hAT1R [3]; Low AT1R Expression) | pEC50 (hAT1R [3]; [6]) | BRET β-Arrestin2 High AT1R Expression Ymax (%) (hAT1R [4]) | pEC50 (hAT1R [4]) | IP-1 Ymax (%) (AGTR1 [5]) | pEC50 (AGTR1 [5]) | pEC50 (hAT1R [3]; [7])
CCc1nc2c(C)cc(C)nc2n1Cc1ccc(-c2cc(C3CCCCO3)ccc2-c2nn[nH]n2)cc1 (single isomer, unassigned) [Example 78, 2-ethyl-5,7-dimethyl-3-((5′-(tetrahydro-2H-pyran-2-yl)-2′-(2H-tetrazol-5-yl)-[1,1′-biphenyl]-4-yl)methyl)-3H-imidazo[4,5-b]pyridine] | 36.1 | 7.14 | 7.70 | 50.0 | 85.0 | 7.43 | 94.3 | 7.82 | 37.8 | 7.10 | 
CCCCC1=NC2(CCOC2)C(=O)N1Cc1ccc(-c2cc(-c3ccccc3)ccc2-c2nnn[nH]2)cc1 (single isomer, unassigned) [Example 146] |  | < 4.00 | 7.50 | 34.0 | 35.0 | 7.28 | 85.6 | 7.42 | 8.3 | 7.12 | 
CCCCC1=NC2(CCOC2)C(=O)N1Cc1ccc(-c2cc(-c3ccccc3)ccc2-c2nnn[nH]2)cc1 (single isomer, unassigned) [Example 147, 3-((6′-(1H-tetrazol-5-yl)-[1,1′:3′,1″-terphenyl]-4-yl)methyl)-2-butyl-7-oxa-1,3-diazaspiro[4.4]non-1-en-4-one] |  | < 4.00 | 6.97 | 23.0 | 26.1 | 6.96 | 66.6 | 6.90 | 3.6 | 6.75 | 
CCc1nc2c(C)cc(C)nc2n1Cc1ccc(-c2cc(-c3ccccc3C)ccc2-c2nn[nH]n2)cc1 [Example 2] | 2.7 | 7.66 | 7.70 | 21.8 | 15.2 | 7.96 | 74.2 | 7.95 | 13.1 | 7.14 | 
CCc1nc2c(C)cc(C)nc2n1Cc1ccc(-c2cc(-c3ccccc3)ccc2-c2nn[nH]n2)cc1 [Example 4] | 13.0 | 8.32 | 8.12 | 48.9 | 69.3 | 8.09 | 95.4 | 8.42 | 9.8 | 7.72 | 
CCc1nc2c(C)cc(C)nc2n1Cc1ccc(-c2cc(-c3cccc(C)c3)ccc2-c2nn[nH]n2)cc1 [Example 8] | 14.0 | 8.11 | 8.22 | 42.2 | 80.5 | 8.27 | 93.0 | 8.39 | 6.9 | 8.22 | 
CCc1nc2c(C)cc(C)nc2n1Cc1ccc(-c2cc(-n3cc4ccccc4n3)ccc2-c2nnn[nH]2)cc1 [Example 216, 3-((5′-(2H-Indazol-2-yl)-2′-(1H-tetrazol-5-yl)-[1,1′-biphenyl]-4-yl)methyl)-2-ethyl-5,7-dimethyl-3H-imidazo[4,5-b]pyridine] | 10.1 | 8.74 | 8.02 | 33.4 |  |  |  |  | 10.6 | 7.54 | 8.18
CCc1nc2c(C)cc(C)nc2n1Cc1ccc(-c2cc(-n3cc(C)cn3)ccc2-c2nnn[nH]2)cc1 [Example 217, 2-ethyl-5,7-dimethyl-3-((5′-(4-methyl-1H-pyrazol-1-yl)-2′-(1H-tetrazol-5-yl)-[1,1′-biphenyl]-4-yl)methyl)-3H-imidazo[4,5-b]pyridine] | 32.1 | 8.57 | 8.34 | 70.3 |  |  |  |  | 21.8 | 7.65 | 8.52
CCc1nc2c(C)cc(C)nc2n1Cc1ccc(-c2cc(-n3ccc(C)n3)ccc2-c2nnn[nH]2)cc1 [Example 218] |  | < 5.00 | 7.34 | 21.5 |  |  |  |  | 4.6 | 7.48 | < 5.00
CCc1nc2c(C)cc(C)nc2n1Cc1ccc(-c2cc(-n3cnc4ccccc43)ccc2-c2nnn[nH]2)cc1 [Example 222] |  | < 4.00 | 7.24 | 42.7 |  |  |  |  | 4.9 | 6.73 | 7.01
CCc1cn(-c2ccc(-c3nnn[nH]3)c(-c3ccc(Cn4c(CC)nc5c(C)cc(C)nc54)cc3)c2)nn1 [Example 231] | 13.8 | 7.44 | 7.54 | 36.8 |  |  |  |  | 8.4 | 7.52 | 7.01
CCc1nc2c(C)cc(C)nc2n1Cc1ccc(-c2cc(-n3cc(C)nn3)ccc2-c2nnn[nH]2)cc1 [Example 232] |  | < 4.00 | 7.77 | 41.5 |  |  |  |  | 7.5 | 7.22 | 6.99
CCc1nc2c(C)cc(C)nc2n1Cc1ccc(-c2cc(-n3nnc4ccccc43)ccc2-c2nnn[nH]2)cc1 [Example 233, 1-(4′-((2-Ethyl-5,7-dimethyl-3H-imidazo[4,5-b]pyridin-3-yl)methyl)-6-(1H-tetrazol-5-yl)-[1,1′-biphenyl]-3-yl)-1H-benzo[d][1,2,3]triazole] | 17.9 | 7.88 | 7.98 | 59.2 |  |  |  |  | 10.2 | 7.50 | 8.01
CCc1nc2c(C)cc(C)nc2n1Cc1ccc(-c2cc(-c3cn(CCF)nn3)ccc2-c2nnn[nH]2)cc1 [Example 239] | 44.3 | 7.78 | 8.27 | 59.1 |  |  |  |  | 34.2 | 7.51 | 8.05
CCc1nc2c(C)cc(C)nc2n1Cc1ccc(-c2cc(-c3cn(CC(C)C)nn3)ccc2-c2nnn[nH]2)cc1 [Example 240] | 9.5 | 7.22 | 7.31 | 42.0 |  |  |  |  | 14.1 | 6.91 | 6.46
CCCCn1cc(-c2ccc(-c3nnn[nH]3)c(-c3ccc(Cn4c(CC)nc5c(C)cc(C)nc54)cc3)c2)nn1 [Example 241] | 17.5 | 7.39 | 7.38 | 44.3 |  |  |  |  | 12.8 | 6.82 | 7.30
CCc1nc2c(C)cc(C)nc2n1Cc1ccc(-c2cc(-c3cn(C)nn3)ccc2-c2nnn[nH]2)cc1 [Example 243, 2-Ethyl-5,7-dimethyl-3-((5′-(1-methyl-1H-1,2,3-triazol-4-yl)-2′-(1H-tetrazol-5-yl)-[1,1′-biphenyl]-4-yl)methyl)-3H-imidazo[4,5-b]pyridine] | 15.2 | 7.38 | 7.65 | 37.7 |  |  |  |  | 14.7 | 7.28 | 7.15
CCc1nc2c(C)cc(C)nc2n1Cc1ccc(-c2cc(-c3ccccc3)ccc2C(=O)NS(C)(=O)=O)cc1 [Example 244] | 15.3 | 7.16 | 7.02 | 34.7 |  |  |  |  | 11.0 | 6.70 | 6.95
CCc1nc2c(C)cc(C)nc2n1Cc1ccc(-c2cc(-c3ccccc3)ccc2-c2n[nH]c(=S)o2)cc1 [Example 246, 5-(4″-((2-Ethyl-5,7-dimethyl-3H-imidazo[4,5-b]pyridin-3-yl)methyl)-[1,1′:3′,1″-terphenyl]-4′-yl)-1,3,4-oxadiazole-2(3H)-thione] | 10.1 | 7.08 | 6.63 | 38.3 |  |  |  |  | 4.8 | 6.55 | 6.04
CCc1nc2c(C)cc(C)nc2n1Cc1ccc(-c2cc(Oc3cccnc3F)ccc2-c2nn[nH]n2)cc1 [Example 262] | 14.4 | 7.95 | 7.70 | 50.8 |  |  |  |  | 8.6 | 7.42 | 7.84
